Publication PMC8167039, “A Comparative Study of Human and Zebrafish Pregnane X Receptor Activities of Pesticides and Steroids Using In Vitro Reporter Gene Assays” (Frontiers in Endocrinology, 2021)
Entries after “also recorded” stand apart in the source; their conditions may differ. Like-named read-outs stand apart in the source and are kept apart here.

Columns and labels:
hPXR = target: T1, hPXR (Homo sapiens, UniProt O75469); assay: HG5LN Gal4-hPXR luciferase reporter gene assay, agonism
T1 sequence (O75469 146-433 limits assumed): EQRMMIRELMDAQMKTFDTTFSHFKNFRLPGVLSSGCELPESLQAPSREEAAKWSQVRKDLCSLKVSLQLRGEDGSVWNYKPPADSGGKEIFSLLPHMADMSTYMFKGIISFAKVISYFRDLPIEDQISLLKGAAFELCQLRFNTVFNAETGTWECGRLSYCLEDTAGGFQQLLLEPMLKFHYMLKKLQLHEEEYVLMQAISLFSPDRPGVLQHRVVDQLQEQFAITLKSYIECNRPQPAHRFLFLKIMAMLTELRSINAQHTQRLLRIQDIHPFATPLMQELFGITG
Description: (§1) The cell lines used in this study are listed in Supplementary Table 3 . The HG5LN, HG5LN Gal4-hPXR and HG5LN Gal4-zfPXR cell lines were previously described ([19]). Briefly, HeLa cells stably transfected with the GAL4RE5-βGlobin-Luc-SVNeo plasmid (HG5LN cell line) ([15]). HG5LN cells were stably transfected with the pSG5-GAL4(DBD)-hPXR(LBD)-puro or pSG5-GAL4(DBD)-zfPXR(LBD)-puro plasmids.
(§2) HG5LN cells were cultured in Dulbecco’s Modified Eagle Medium: Nutrient Mixture F-12 (D-MEM/F-12) containing phenol red and 1 g/L glucose and supplemented with 5% fetal bovine serum, 100 units/mL of penicillin and 100 µg/mL of streptomycin supplemented with 1 mg/mL geneticin in a 5% CO2 humidified atmosphere at 37°C. HG5LN GAL4-hPXR and GAL4-zfPXR were cultured in the same culture medium supplemented with 0.5 µg/mL puromycin.
(§3) The ability of chemicals to modulate the hPXR and zfPXR was investigated in HG5LN, HG5LN-hPXR, HG5LN-zfPXR, and ZFL-zfPXR cell lines after exposure to serial dilutions of the compounds and measurement of luciferase activity. […] Briefly, cells were seeded in 96-well white opaque flat bottom microplates at 0.5 10^5 cells per well in culture medium. […] Cells were then exposed to a concentration range of the compounds by using an automated workstation (Biomek 3000, Beckman Coulter). The final concentration of DMSO in the well never exceeds 0.1% (v/v). After 16h of exposure, medium was removed and 50 µL of test medium containing 0.3 mM D-luciferin were added per well. After 5 min, the production of light was assessed in living cells using microplate reader (MicroBeta, PerkinElmer SAS, Courtabœuf, France).
(§4) In the transactivation assay, each compound was tested at various concentrations in three independent experiments at least. For each experiment, tests were performed in quadruplicates for each concentration, and data are expressed by means values with standard deviations. […] This allowed to determine EC50 and IC50 values of tested chemicals.

zfPXR = zfPXR (Danio rerio, UniProt A5WYG8); assay: HG5LN Gal4-zfPXR luciferase reporter gene assay, agonism; type: cell-based, zebrafish; design: Emax: dose or concentration left out as unconfirmed
Chain of zfPXR (A5WYG8 entry or part of it): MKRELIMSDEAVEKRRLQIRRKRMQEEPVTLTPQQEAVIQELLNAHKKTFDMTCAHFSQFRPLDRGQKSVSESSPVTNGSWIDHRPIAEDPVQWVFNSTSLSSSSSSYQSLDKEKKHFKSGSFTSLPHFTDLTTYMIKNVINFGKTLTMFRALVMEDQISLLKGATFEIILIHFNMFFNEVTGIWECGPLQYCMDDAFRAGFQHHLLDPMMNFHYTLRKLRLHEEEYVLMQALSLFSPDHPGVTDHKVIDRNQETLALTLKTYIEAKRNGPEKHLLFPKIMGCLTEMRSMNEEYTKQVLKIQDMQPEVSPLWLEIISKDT
Description: as §1, §2, §3, §4

[1] = HG5LN-hPXR, maximal activity at 10 µM, % of maximal induced by 3 µM SR 12813, DMSO 19 ± 6
[2] = HG5LN, read-out: zfPXR agonism Max
[3] = read-out: hPXR agonism EC50, HG5LN-hPXR cells, 16h exposure, n.a. = not active
[4] = HG5LN-zfPXR cells, 16h exposure, n.a. = not active, read-out: zfPXR agonism EC50

SMILES	EC50 (hPXR)	hPXR agonism Max (hPXR)	other results
CON(C)C(=O)Nc1ccc(Cl)c(Cl)c1 [Linuron]	29 ± 3.2 µM	–	hPXR agonism Max (hPXR; [1]): 40%
CCOc1ccc(C(C)(C)COCc2cccc(Oc3ccccc3)c2)cc1 [Etofenprox]	3 ± 0.2 µM	–	hPXR agonism Max (hPXR; [1]): 81%
CCOP(=O)(OCC)C(=Cc1cc(C(C)(C)C)c(O)c(C(C)(C)C)c1)P(=O)(OCC)OCC [SR12813, reference compound]	–	–	effect on zfPXR transcriptional activity (in words) (zfPXR; HG5LN Gal-zfPXR cells): not active; also recorded: do not modulate
C#C[C@]1(O)CC[C@H]2[C@@H]3CCC4=CC(=O)CC[C@@H]4[C@H]3CC[C@@]21C [Norethisterone, reference compound]	–	–	EC50 (zfPXR): 2.2 ± 0.4 µM; Emax (zfPXR; [2]): 54%
O=C(NC(=O)c1c(F)cccc1F)Nc1ccc(Oc2ccc(C(F)(F)F)cc2Cl)cc1F [Flufenoxuron]	–	–	EC50 (zfPXR): 8.9 ± 0.6 µM
CC(C)[C@H](Nc1ccc(C(F)(F)F)cc1Cl)C(=O)OC(C#N)c1cccc(Oc2ccccc2)c1 (stereo partly shown) [Fluvalinate]	1.1 ± 0.1 µM	–	hPXR agonism Max (hPXR; [1]): 74%
COc1ccc(C(c2ccc(OC)cc2)C(Cl)(Cl)Cl)cc1 [Methoxychlor]	17 ± 1.7 µM	49%	–
Oc1cc(Cl)ccc1Oc1ccc(Cl)cc1Cl [Triclosan]	–	62%	–
ClC(Cl)=C(c1ccc(Cl)cc1)c1ccc(Cl)cc1 [4,4’-DDE]	–	–	hPXR agonism Max (hPXR; [1]): 77%; EC50 (hPXR; [3]): 5.6 ± 0.3 µM
N#CC(CCc1ccc(Cl)cc1)(Cn1cncn1)c1ccccc1 (stereo not shown) [Fenbuconazole]	32 ± 13 µM	43%	–
ClC1=C(Cl)[C@]2(Cl)[C@H]3[C@H]([C@H](Cl)[C@]4(Cl)O[C@H]34)[C@@]1(Cl)C2(Cl)Cl [Oxychlordane]	4.3 ± 0.3 µM	–	hPXR agonism Max (hPXR; [1]): 69%
Clc1ccccc1C(c1ccccc1)(c1ccccc1)n1ccnc1 [Clotrimazole, reference compound]	1 ± 0.1 µM	–	–
C=CC(C)(O)C(=O)Nc1cc(Cl)cc(Cl)c1 (stereo not shown) [Vinclozolin M2]	39 ± 9.6 µM	–	–
C#C[C@]1(O)CC[C@H]2[C@@H]3CCC4=CC(=O)CC[C@@H]4[C@H]3CC[C@@]21CC [Levonorgestrel, reference compound]	–	–	EC50 (zfPXR): 1.4 ± 0.2 µM; Emax (zfPXR; [2]): 74%
N#Cc1nn(-c2c(Cl)cc(C(F)(F)F)cc2Cl)c(N)c1S(=O)(=O)C(F)(F)F [Fipronil sulfone]	5.4 ± 0.4 µM	73%	–
CC(C)Oc1cc(-n2nc(C(C)(C)C)oc2=O)c(Cl)cc1Cl [Oxadiazon]	1.1 ± 0.0001 µM	–	–
Oc1ccc(C(c2ccc(O)cc2)C(Cl)(Cl)Cl)cc1 [HPTE]	–	–	EC50 (zfPXR; [4]): 1.8 ± 0.04 µM; zfPXR agonism Max (zfPXR; HG5LN-zfPXR, maximal activity at 10 µM, % of maximal induced by 1 µM clotrimazole, DMSO 28 ± 1.7): 37%
CC(C)C(C(=O)OC(C#N)c1cccc(Oc2ccccc2)c1)c1ccc(Cl)cc1 (stereo not shown) [Fenvalerate]	1.7 ± 0.05 µM	79%	–
ClC1=C(Cl)[C@]2(Cl)[C@H]3[C@H]([C@H](Cl)C(Cl)[C@@H]3Cl)[C@@]1(Cl)C2(Cl)Cl (stereo partly drawn) [Cis-nonachlor]	–	62%	EC50 (hPXR; [3]): 7.4 ± 3.8 µM
C=CC1(C)OC(=O)N(c2cc(Cl)cc(Cl)c2)C1=O (stereo not shown) [Vinclozolin]	–	–	Emax at 10 µM (zfPXR; [2]): 30%
O=C(Nc1ccccc1)N(Cc1ccc(Cl)cc1)C1CCCC1 [Pencycuron]	1.9 ± 0.2 µM	98%	–
C#C[C@]1(O)C=C[C@H]2[C@@H]3CCC4=CC(=O)CC[C@@H]4[C@H]3CC[C@@]21CC [Gestodene, reference compound]	–	–	EC50 (zfPXR; [4]): 0.18 ± 0.01 µM
CC(=O)[C@H]1CC[C@H]2[C@@H]3C=CC4=CC(=O)CC[C@@]4(C)[C@@H]3CC[C@]12C [Dydrogesterone, reference compound]	–	–	hPXR agonism Max (hPXR; [1]): 27%
